Source: the NIST ThermoML archive (doi:10.1021/je800234h)

Experiment: mn = molality of the nth substance listed, in mol/kg
Conditions: Liquid, Vibrating tube method

[Ca+2].[Cl-].[Cl-] [calcium chloride] + CCO
Conditions	mass density [kg/m3]
373.15 K, 30290 kPa, m1 = 0.09327	758.06
373.15 K, 30410 kPa, m1 = 0.1743	764.51
373.15 K, 35070 kPa, m1 = 1.266	842.89
373.15 K, 35370 kPa, m1 = 0.4379	787.22
373.15 K, 35420 kPa, m1 = 0.09327	762.76
373.15 K, 35480 kPa, m1 = 1.55	862.67
373.15 K, 35840 kPa, m1 = 0.6899	804.85
373.15 K, 35870 kPa, m1 = 0.1743	768.88
373.15 K, 35870 kPa, m1 = 0.9896	825.32
373.15 K, 39260 kPa, m1 = 0.4379	790.31
373.15 K, 39740 kPa, m1 = 0.1743	771.57
373.15 K, 39910 kPa, m1 = 0.09327	766.53
373.15 K, 39940 kPa, m1 = 0.6899	807.94
373.15 K, 39960 kPa, m1 = 0.9896	828.19
373.15 K, 39970 kPa, m1 = 1.266	846.74
373.15 K, 39970 kPa, m1 = 1.55	865.39
398.15 K, 620 kPa, m1 = 1.266	780.71
398.15 K, 680 kPa, m1 = 0.09327	692.59
398.15 K, 740 kPa, m1 = 1.55	801.26
398.15 K, 950 kPa, m1 = 0.4379	719.54
398.15 K, 970 kPa, m1 = 0.6899	737.62
398.15 K, 1030 kPa, m1 = 0.1743	700.75
398.15 K, 1060 kPa, m1 = 0.9896	760.33
398.15 K, 5070 kPa, m1 = 0.1743	707.51
398.15 K, 5070 kPa, m1 = 0.9896	766.76
398.15 K, 5100 kPa, m1 = 0.09327	700.41
398.15 K, 5160 kPa, m1 = 0.6899	744.53
398.15 K, 5180 kPa, m1 = 1.266	786.93
398.15 K, 5380 kPa, m1 = 0.4379	726.88
398.15 K, 5470 kPa, m1 = 1.55	808.33
398.15 K, 10020 kPa, m1 = 0.6899	752.01
398.15 K, 10060 kPa, m1 = 1.266	793.27
398.15 K, 10080 kPa, m1 = 0.09327	708.63
398.15 K, 10290 kPa, m1 = 0.4379	734.49
398.15 K, 10460 kPa, m1 = 1.55	815.02
398.15 K, 10540 kPa, m1 = 0.1743	716.08
398.15 K, 10540 kPa, m1 = 0.9896	774.89
398.15 K, 15240 kPa, m1 = 0.6899	759.43
398.15 K, 15290 kPa, m1 = 0.1743	722.99
398.15 K, 15290 kPa, m1 = 0.9896	781.35
398.15 K, 15410 kPa, m1 = 0.09327	716.75
398.15 K, 15610 kPa, m1 = 0.4379	742.12
398.15 K, 15620 kPa, m1 = 1.266	800.09
398.15 K, 15620 kPa, m1 = 1.55	821.29
398.15 K, 20030 kPa, m1 = 0.09327	723.21
398.15 K, 20080 kPa, m1 = 1.266	805.26
398.15 K, 20140 kPa, m1 = 0.1743	729.54
398.15 K, 20140 kPa, m1 = 1.55	826.33
398.15 K, 20410 kPa, m1 = 0.9896	787.68
398.15 K, 20480 kPa, m1 = 0.4379	748.53
398.15 K, 20620 kPa, m1 = 0.6899	766.4
398.15 K, 24980 kPa, m1 = 0.1743	735.56
398.15 K, 25060 kPa, m1 = 0.09327	729.63
398.15 K, 25080 kPa, m1 = 0.9896	792.89
398.15 K, 25340 kPa, m1 = 0.4379	754.4
398.15 K, 25340 kPa, m1 = 1.55	831.69
398.15 K, 25640 kPa, m1 = 1.266	811.31
398.15 K, 25890 kPa, m1 = 0.6899	772.57
398.15 K, 30030 kPa, m1 = 1.266	815.79
398.15 K, 30060 kPa, m1 = 0.4379	759.57
398.15 K, 30140 kPa, m1 = 0.6899	777.06
398.15 K, 30170 kPa, m1 = 0.09327	735.52
398.15 K, 30470 kPa, m1 = 1.55	836.6
398.15 K, 30740 kPa, m1 = 0.9896	798.47
398.15 K, 30780 kPa, m1 = 0.1743	742.1
398.15 K, 35180 kPa, m1 = 0.09327	740.65
398.15 K, 35180 kPa, m1 = 0.4379	764.61
398.15 K, 35460 kPa, m1 = 0.1743	746.84
398.15 K, 35740 kPa, m1 = 1.266	821.22
398.15 K, 35830 kPa, m1 = 1.55	841.39
398.15 K, 35940 kPa, m1 = 0.6899	782.51
398.15 K, 35970 kPa, m1 = 0.9896	802.93
398.15 K, 39290 kPa, m1 = 0.6899	785.29
398.15 K, 39380 kPa, m1 = 0.4379	768.3
398.15 K, 39760 kPa, m1 = 1.55	844.7
398.15 K, 39790 kPa, m1 = 0.1743	750.79
398.15 K, 39860 kPa, m1 = 0.9896	805.8
398.15 K, 39920 kPa, m1 = 0.09327	744.93
398.15 K, 39920 kPa, m1 = 1.266	824.91
